row,Structure (SMILES),melting point
1,CSc1ccc2c(c1)Sc1cc(O)cc(O)c1C(=O)C2 [Example 19],182.3 to 184.4 °C
2,CCCc1ccc2c(c1)CC(=O)c1c(O)cc(O)cc1O2 [Example 47],121 to 123 °C
3,O=C1Cc2ccc(Br)cc2Sc2cc(O)c(O)cc21 [Example 20],> 250 °C
4,"O=C1Cc2ccc(Br)cc2Sc2cc(O)cc(O)c21 [Example 9, 3-Bromo-7,9-dihydroxy-10,11-dihydrodibenzo[b,f]thiepin-10-one]",> 200 °C (dec.)
5,CCC1C(=O)c2cc(O)c(O)cc2Sc2ccc(-c3cccs3)cc21 (centres unmarked) [Example 162],225.7 to 227.4 °C
6,"CCC(=O)c1ccc2c(c1)CCc1c(O)cc(O)cc1O2 [Example 10, 8-Propionyl-10,11-dihydrodibenz[b,f]oxepin-1,3-diol]",159 to 160.3 °C
7,Cc1ccc(-c2ccc3c(c2)Oc2cc(O)cc(O)c2C(=O)C3)cc1 [Example 71],208.8 to 210.2 °C
8,Cc1ccccc1-c1ccc2c(c1)Oc1cc(O)cc(O)c1C(=O)C2 [Example 72],163.5 to 165.8 °C
9,CCCCC(=O)c1ccc2c(c1)CCc1c(O)cc(O)cc1S2 [Example 131],155.1 to 158.7 °C
10,Oc1cc(O)c2c(c1)Sc1ccc(-c3ccco3)cc1CC2 [Example 127],213.7 to 214.7 °C
11,CCC1C(=O)c2cc(O)c(O)cc2Sc2cc(-c3cccc(Cl)c3)ccc21 (centres unmarked) [Example 157],175.5 to 176.8 °C
12,N#Cc1ccc2c(c1)CCc1c(O)cc(O)cc1O2 [Example 122],211.8 to 217.3 °C
13,CCC1C(=O)c2cc(O)c(O)cc2Sc2cc(-c3cccs3)ccc21 (centres unmarked) [Example 155],270.3 to 271.9 °C
14,CCC1C(=O)c2cc(O)c(O)cc2Sc2cc(-c3ccco3)ccc21 (centres unmarked) [Example 153],242.9 to 248.4 °C
15,Oc1cc(O)c2c(c1)Sc1ccc(-c3cccs3)cc1CC2 [Example 126],207.3 to 208.1 °C
16,O=C1Cc2cc(-c3ccccc3)ccc2Oc2cc(O)c(O)c(O)c21 [Example 88],124 to 125.8 °C
17,O=[N+]([O-])c1cccc(-c2ccc3c(c2)CCc2c(O)cc(O)cc2O3)c1 [Example 120],199.6 to 201.8 °C
18,O=C1Cc2cc(-c3cc4ccccc4o3)ccc2Oc2cc(O)cc(O)c21 [Example 94],268.4 to 268.5 °C
19,CC1C(=O)c2ccc(O)cc2Sc2ccccc21 (centres unmarked) [Example 41],190 to 191.6 °C
20,CCC1C(=O)c2cc(O)c(O)cc2Sc2ccc(-c3cc4ccccc4o3)cc21 (centres unmarked) [Example 161],277.4 to 279.2 °C
21,O=C1Cc2cc(-c3ccco3)ccc2Sc2cc(O)cc(O)c21 [Example 84],243.5 to 248.4 °C (dec.)
22,CCCC(=O)c1ccc2c(c1)CCc1c(O)cc(O)cc1S2 [Example 129],151.8 to 152.8 °C

row,Structure (SMILES),melting point
1,CCCCc1ccc2c(c1)CC(=O)c1c(O)cc(O)cc1S2 [Example 53],106.9 to 108.1 °C
2,O=C1Cc2cc(-c3cccc(Cl)c3)ccc2Oc2cc(O)cc(O)c21 [Example 61],208.9 to 213.6 °C
3,CCc1ccc2c(c1)CC(=O)c1c(O)cc(O)cc1S2 [Example 48],179.1 to 180.1 °C
4,Oc1cc(O)c2c(c1)Sc1ccc(Cl)cc1CC2 [Example 26],181.1 to 184.9 °C
5,Oc1cc(O)c2c(c1)Oc1ccc(-c3cccs3)cc1CC2 [Example 111],188.3 to 191.4 °C
6,CCC1C(=O)c2cc(O)c(O)cc2Sc2ccc(-c3cc4ccccc4s3)cc21 (centres unmarked) [Example 172],251.4 to 255.5 °C (dec.)
7,Nc1cccc(-c2ccc3c(c2)Oc2cc(O)cc(O)c2C(=O)C3)c1 [Example 74],228.3 to 230 °C
8,O=C1Cc2cc(-c3ccc(-c4ccccc4)cc3)ccc2Oc2cc(O)cc(O)c21 [Example 79],> 250 °C (dec.)
9,Oc1cc2c(c(O)c1O)CCc1cc(-c3ccccc3)ccc1O2 [Example 125],175.1 to 178.3 °C
10,Nc1cccc(-c2ccc3c(c2)CC(=O)c2c(O)cc(O)cc2S3)c1 [Example 83],> 200 °C (dec.)
11,CC1=Cc2cc(O)c(O)cc2Sc2ccccc21 [Example 145],68.2 to 70.1 °C
12,O=C1Cc2cc(-c3ccco3)ccc2Oc2cc(O)cc(O)c21 [Example 57],171 to 172.7 °C
13,CCCC(=O)c1ccc2c(c1)CCc1c(O)cc(O)cc1O2 [Example 128],157.6 to 157.9 °C
14,CCCCc1ccc2c(c1)CC(=O)c1c(O)cc(O)cc1O2 [Example 50],105.6 to 106.8 °C
15,COc1cc(O)c2c(c1)Sc1ccc(Br)cc1CC2=O [Example 14],187.5 °C
16,Oc1cc(O)c2c(c1)Oc1cc(CCc3ccccc3)ccc1CC2 [Example 108],169.1 to 174.9 °C
17,O=C(Cc1ccc2c(c1)Oc1cc(O)cc(O)c1C(=O)C2)C1=CCCCC1 [Example 68],195.5 to 195.8 °C
18,CCC1(CC)C(=O)c2cc(O)c(O)cc2Sc2ccccc21 [Example 3],238 to 244.1 °C
19,O=C1Cc2ccc(-c3ccc(-c4ccccc4)cc3)cc2Oc2cc(O)cc(O)c21 [Example 96],261.6 to 263.2 °C
20,O=C1Cc2cc(-c3cccs3)ccc2Sc2cc(O)cc(O)c21 [Example 76],240.1 to 246.1 °C
21,Oc1cc(O)c2c(c1)Oc1ccc(-c3ccccc3)cc1CC2 [Example 109],176.7 to 179.2 °C
22,N#Cc1ccc2c(c1)CCc1c(O)cc(O)cc1S2 [Example 29],237.4 to 238.6 °C

# — patent publication US6700013B2, “Tricyclic fused heterocycle compounds, process for preparing the same and use thereof” (Nippon Suisan Kaisha, Ltd., priority 1999, dated 2004)
